{"source": "patent US8445516B2", "about": "“Pharmaceutical composition for promoting angiogenesis” (Otsuka Pharmaceutical Co., Ltd., priority 2004, dated 2013)", "assay_type_in_all_cases": "cell-based", "key": {"[1]": {"test_system": "human aortic endothelial cells", "experiment": "Luminalization (tube formation) of vascular endothelial cells in gel", "details": "for Length of formed tube (Pixel): third day, mean ± SE, control 13.3 ± 0.4", "protocol": "The test was conducted according to a report by Yasunaga, C. et al. (Lab Invest, 1989; 61: 698-704). Briefly, human aortic endothelial cells (Cambrex Corp.) were cultured in MCDB131 medium to confluent state. Cells prepared with medium containing the Test Compound A, 5×10^4 cells/well, were added on cell matrix gel (Nitta Gelatin Co.) and cultured for 4 hours to adhere cells. After medium removal, gel was added to embed cells, and medium containing the drug was added on the upper layer, then length of the formed tube was measured on the third day based on digital camera image by using Scion Image (Scion Corp.). The statistical analysis was performed as follows: Data were analyzed using Williams' test after linear regression analysis. The difference between test compound groups and non-treated group were considered statistical significant at P<0.05."}, "[2]": {"test_system": "thoracic aortic ring specimens of rat", "experiment": "Rat aortic ring culture: angiogenesis promoting action (newly grown micro-vessels)", "details": "for Number of micro-vessels: 7 days culture, mean ± SE, control 20 ± 2", "protocol": "The test was conducted according to a report by Nicosia R. F. et al. (In Vitro Cell Dev Biol 26, 119-128, 1990). Briefly, thoracic aorta was removed from rat under ether anesthesia, and aortic rings were obtained by cross-sectioning at 1 mm intervals. The aortic rings were embedded into type I collagen gel (Koken Co.). Further, MCDB131 medium (Gibco BRL Co.) containing the Test Compound A was added to the upper layer, and the medium was exchanged every three days. After 7 days from the culture, micro-vessels newly grown from a cutting section of the aortic ring specimens were stained with alkaline phosphatase, then numbers of micro-vessels observed based on digital camera image were counted by using Scion Image (Scion Corp.). The statistical analysis was performed as follows: Data were analyzed using Dunnett's test with randamized block design. The difference between test compound groups and non-treated group were considered statistical significant at P<0.05."}, "[3]": {"test_system": "human aortic endothelial cells", "experiment": "Vascular endothelial cell migration (48 well micro chemotaxis chamber)", "details": "for Number of Migration cell: 4 hours, mean ± SE, control 34 ± 8", "protocol": "The test was conducted according to a report by Witzenbichler, B. et al. (J. Biol. Chem., 273, 18514-18521, 1998). Briefly, human aortic endothelial cells (Cambrex Corp.) were cultured in MCDB131 medium to confluent state. Cell migration was tested by using a 48 well micro chemotaxis chamber (Neuro Probe Inc.). The Test Compound A was added into the lower layer of a well, while cells, 1×10^4 cells per well, were added into the upper layer, and those were cultured for 4 hours. Cells were immobilized with methanol and cells in the upper layer of a filter were removed, and cells migrated on the filter were stained with Diff Quick (International Reagents Corp.), then numbers of migrated endothelial cells observed from digital camera image were counted by using Scion Image (Scion Corp.). The statistical analysis was performed as follows: Data were analyzed using Williams' test after linear regression analysis. The difference between test compound groups and non-treated group were considered statistical significant at P<0.05."}, "[4]": {"details": "dose dependent manner, compared with non-treated control group"}}}
{"smiles": "CCC(=O)Nc1c(C)cc(C(=O)N2CCC(N(C)CCc3ccccc3)CC2)cc1C", "note": "[Test Compound A, 4-[N-methyl-N-(2-phenylethyl)amino]-1-(3,5-dimethyl-4-propionylaminobenzoyl)piperidine]", "values": [{"measurement": "Length of formed tube (Pixel)", "setting": "[1]; Concentration 6 (−Log M)", "result": "48.4 ± 5.3", "unit": "Pixel"}, {"measurement": "Length of formed tube (Pixel)", "setting": "[1]; Concentration 7 (−Log M)", "result": "32.2 ± 3.8", "unit": "Pixel"}, {"measurement": "Length of formed tube (Pixel)", "setting": "[1]; Concentration 8 (−Log M)", "result": "15.7 ± 0.9", "unit": "Pixel"}, {"measurement": "Effect on length of formed tube (in words)", "setting": "[1]; [4]", "result": "significantly increased length of formed tube"}, {"measurement": "Number of micro-vessels", "setting": "[2]; Concentration 6 (−Log M)", "result": "35 ± 4"}, {"measurement": "Number of micro-vessels", "setting": "[2]; Concentration 7 (−Log M)", "result": "33 ± 3"}, {"measurement": "Number of micro-vessels", "setting": "[2]; Concentration 8 (−Log M)", "result": "32 ± 4"}, {"measurement": "Number of micro-vessels", "setting": "[2]; Concentration 9 (−Log M)", "result": "27 ± 2"}, {"measurement": "Number of micro-vessels", "setting": "[2]; Concentration 10 (−Log M)", "result": "30 ± 3"}, {"measurement": "Number of micro-vessels", "setting": "[2]; Concentration 11 (−Log M)", "result": "22 ± 3"}, {"measurement": "Number of micro-vessels", "setting": "[2]; Concentration 12 (−Log M)", "result": "24 ± 3"}, {"measurement": "Effect on numbers of newly grown micro-vessels (in words)", "setting": "[2]; [4]", "result": "significantly increased numbers of newly grown micro-vessels"}, {"measurement": "Number of Migration cell", "setting": "[3]; Concentration 8 (−Log M)", "result": "64 ± 7"}, {"measurement": "Number of Migration cell", "setting": "[3]; Concentration 9 (−Log M)", "result": "64 ± 8"}, {"measurement": "Number of Migration cell", "setting": "[3]; Concentration 10 (−Log M)", "result": "49 ± 6"}, {"measurement": "Number of Migration cell", "setting": "[3]; Concentration 11 (−Log M)", "result": "42 ± 6"}, {"measurement": "Number of Migration cell", "setting": "[3]; Concentration 12 (−Log M)", "result": "41 ± 8"}, {"measurement": "Effect on numbers of migration cells (in words)", "setting": "[3]; [4]", "result": "significantly increased numbers of migration cells"}]}
